{"source": "patent US10961309B2", "about": "“Reducing systemic regulatory T cell levels or activity for treatment of disease and injury of the CNS” (Yeda Research and Development Co. Ltd, priority 2014, dated 2021)", "assay_type_in_all_cases": "in vivo, mouse", "key": {"5XFAD AD-Tg mice": {"test_system": "5XFAD AD-Tg mice", "assay": "Radial arm water maze (RAWM)", "experimental": "The radial-arm water maze (RAWM) was used to test spatial learning and memory, as was previously described in detail (Alamed et al, 2006). Briefly, six stainless steel inserts were placed in the tank, forming six swim arms radiating from an open central area. The escape platform was located at the end of one arm (the goal arm), 1.5 cm below the water surface, in a pool 1.1 m in diameter. The water temperature was kept between 21-22° C. Water was made opaque with milk powder. Within the testing room, only distal visual shape and object cues were available to the mice to aid in location of the submerged platform. The goal arm location remained constant for a given mouse. On day 1, mice were trained for 15 trials (spaced over 3 h), with trials alternating between a visible and hidden platform, and the last 4 trails with hidden platform only. On day 2, mice were trained for 15 trials with the hidden platform. Entry into an incorrect arm, or failure to select an arm within 15 sec, was scored as an error. Spatial learning and memory were measured by counting the number of arm entry errors or the escape latency of the mice on each trial. Training data were analyzed as the mean errors or escape latency, for training blocks of three consecutive trials.\nAt 10 months of age, 5XFAD Alzheimer's' disease (AD) transgenic (Tg) mice were injected i.p. with either 250 ug of anti-PD1 (RMP1-14; #BE0146; Bioxcell Lifesciences Pvt. LTD.) or control IgG (IgG2a; #BE0089; Bioxcell Lifesciences Pvt. LTD.) antibodies, on day 1 and day 4 of the experiment, and were examined 3 weeks after (schematically depicted in FIG. 11A) for their cognitive performance by radial arm water maze (RAWM) spatial learning and memory task, as was previously described in detail (Alamed et al, 2006). Briefly, on day 1 of the RAWM task, mice were trained for 15 trials (spaced over 3 h), with trials alternating between a visible and hidden platform, and the last 4 trails with hidden platform only. On day 2, mice were trained for 15 trials with the hidden platform. Entry into an incorrect arm, or failure to select an arm within 15 sec, was scored as an error. Spatial learning and memory were measured by counting the number of arm entry errors or the escape latency of the mice on each trial. Age matched untreated WT and AD-Tg mice were used as controls."}, "[1]": {"test_system": "hippocampal cytokine and neurotropic factor mRNA", "assay": "Brain parenchyma / hippocampus mRNA expression by RT-qPCR", "experimental": "(§1) Total RNA of the hippocampal dentate gyrus (DG) was extracted with TRI Reagent (Molecular Research Center) and purified from the lysates using an RNeasy Kit (Qiagen). Total RNA of the choroid plexus was extracted using an RNA MicroPrep Kit (Zymo Research). mRNA (1 μg) was converted into cDNA using a High Capacity cDNA Reverse Transcription Kit (Applied Biosystems). The expression of specific mRNAs was assayed using fluorescence-based quantitative real-time PCR (RT-qPCR). RT-qPCR reactions were performed using Fast-SYBR PCR Master Mix (Applied Biosystems). Quantification reactions were performed in triplicate for each sample using the standard curve method. Peptidylprolyl isomerase A (ppia) was chosen as a reference (housekeeping) gene. The amplification cycles were 95° C. for 5 s, 60° C. for 20 s, and 72° C. for 15 s. At the end of the assay, a melting curve was constructed to evaluate the specificity of the reaction. For ifn-γ and ppia gene analysis, the cDNA was pre-amplified in 14 PCR cycles with non-random PCR primers, thereby increasing the sensitivity of the subsequent real-time PCR analysis, according to the manufacturer's protocol (PreAmp Master Mix Kit; Applied Biosystems). mRNA expression was determined using TaqMan RT-qPCR, according to the manufacturer's instructions (Applied Biosystems). All RT-qPCR reactions were performed and analyzed using StepOne software V2.2.2 (Applied Biosystems). The following TaqMan Assays-on-Demand™ probes were used: Mm02342430_g1 (ppia) and Mm01168134_m1 (ifn-γ).\nFor all other genes examined, the following primers were used: […]"}, "[2]": {"test_system": "CD11bhigh/CD45high mo-MΦ, CD4+ T cells, Foxp3+ Tregs in the brain", "assay": "Flow cytometry of brain parenchyma / hippocampus", "experimental": "Mice were transcardially perfused with PBS, and tissues were treated as previously described (Baruch et al, 2013). Brains were dissected and the different brain regions were removed under a dissecting microscope (Stemi DV4; Zeiss) in PBS, and tissues were dissociated using the gentleMACS™ dissociator (Miltenyi Biotec). Choroid plexus tissues were isolated from the lateral, third and fourth ventricles of the brain, incubated at 37° C. for 45 min in PBS (with Ca^2+/Mg^2+) containing 400 U/ml collagenase type IV (Worthington Biochemical Corporation), and then manually homogenized by pipetting. Spleens were mashed with the plunger of a syringe and treated with ACK (ammonium chloride potassium) lysing buffer to remove erythrocytes. In all cases, samples were stained according to the manufacturers' protocols. All samples were filtered through a 70 μm nylon mesh, and blocked with anti-Fc CD16/32 (1:100; BD Biosciences). For intracellular staining of IFN-γ, the cells were incubated with […] (10 ng/ml; Sigma-Aldrich) and ionomycin (250 ng/ml; Sigma-Aldrich) for 6 h, and Brefeldin-A (10 μg/ml; Sigma-Aldrich) was added for the last 4 h. Intracellular labeling of cytokines was done with BD Cytofix/Cytoperm™ Plus fixation/permeabilization kit (cat. no. 555028). For Treg staining, an eBioscience FoxP3 staining buffer set (cat. no. 00-5523-00) was used. The following fluorochrome-labeled monoclonal antibodies were purchased from BD Pharmingen, BioLegend, R&D Systems, or eBiosciences, and used according to the manufacturers' protocols: PE or Alexa Fluor 450-conjugated anti-CD4; PE-conjugated anti-CD25; PerCP-Cy5.5-conjugated anti-CD45; FITC-conjugated anti-TCRβ; APC-conjugated anti-IFN-γ; APC-conjugated anti-FoxP3; Brilliant-violet-conjugated anti-CD45. Cells were analyzed on an LSRII cytometer (BD Biosciences) using FlowJo software. In each experiment, relevant negative control groups, positive controls, and single stained samples for each tissue were used to identify the populations of interest and to exclude other populations."}, "[3]": {"test_system": "choroid plexus leukocyte trafficking molecules (icam1, cxcl10, ccl2) and ifn-γ", "assay": "Choroid plexus (CP) mRNA expression by RT-qPCR", "experimental": "as §1, with “At the end of the assay, a melting curve was constructed to evaluate the specificity of the reaction.” left out, “The following TaqMan Assays-on-Demand™ probes were used: Mm02342430_g1 (ppia) and Mm01168134_m1 (ifn-γ).” left out"}, "[4]": {"conditions": "AD-Tg/DTR+ mice, 3 weeks after last DTx injection"}, "[5]": {"conditions": "weekly-GA vs untreated AD-Tg mice, age 6 m"}}, "note": "Entries after “also recorded” stand apart in the source; their conditions may differ."}
{"compound": "CC1=C(/C=C/C(C)=C/C=C/C(C)=C/C(=O)O)C(C)(C)CCC1", "note": "[ATRA, All-trans retinoic acid]", "values": [{"measurement": "cognitive performance (spatial memory) in the RAWM", "setting": "5XFAD AD-Tg mice; ATRA-treated vs vehicle-treated AD-Tg mice, 3 weeks after treatment", "value": "worsening of the spatial memory deficits"}]}
{"compound": "Diphtheria toxin [DTx]", "values": [{"measurement": "mRNA expression levels of pro-inflammatory cytokines (il-12p40, tnf-α)", "setting": "[1]; AD-Tg/DTR+ mice, brain parenchyma, 3 weeks after last DTx injection", "value": "reduced mRNA expression levels"}, {"measurement": "foxp3 and il10 mRNA expression", "setting": "[1]; AD-Tg/DTR+ mice, hippocampus, 3 weeks after last DTx injection", "value": "increased expression"}, {"measurement": "Foxp3+ Tregs among CD4+ T cells in the brain", "setting": "[2]; [4]", "value": "marked enrichment"}, {"measurement": "numbers of CD45high/CD11bhigh mo-MΦ and CD4+ T cells in brain parenchyma", "setting": "[2]; [4]", "value": "increased numbers; also recorded: elevated numbers"}, {"measurement": "CP mRNA expression of leukocyte trafficking molecules (icam1, cxcl10, ccl2)", "setting": "[3]; AD-Tg/DTR+ vs DTx-treated AD-Tg/DTR− littermates, 1 day after last DTx injection", "value": "elevated mRNA expression"}]}
{"compound": "Glatiramer acetate [GA]", "values": [{"measurement": "neuroinflammation", "setting": "[1]; weekly-GA 100 μg s.c. over 4 weeks, 5XFAD AD-Tg mice, hippocampus", "value": "reduced neuroinflammation"}, {"measurement": "hippocampal mRNA of anti-inflammatory cytokines IL-10 and TGF-β", "setting": "[1]; [5]", "value": "elevation"}, {"measurement": "hippocampal mRNA of neurotropic factors IGF-1 and BDNF", "setting": "[1]; [5]", "value": "elevation"}, {"measurement": "hippocampal mRNA of pro-inflammatory cytokines TNF-α, IL-1β and IL-12p40", "setting": "[1]; [5]", "value": "reduced expression"}, {"measurement": "numbers of CD11bhighCD45high-expressing cells in the hippocampus", "setting": "[2]; weekly-GA, AD-Tg non-chimeric mice, 2nd week of regimen", "value": "increased numbers"}, {"measurement": "CP epithelial expression of leukocyte trafficking molecules (icam1, cxcl10, ccl2)", "setting": "[3]; weekly-GA, AD-Tg mice, end of 1st or 4th week", "value": "upregulated epithelial expression of leukocyte trafficking molecules"}, {"measurement": "cognitive performance (spatial memory) by the RAWM task", "setting": "5XFAD AD-Tg mice; daily-GA 100 μg s.c. for 1 month, 7-month old 5XFAD AD-Tg mice", "value": "either no beneficial effect on spatial memory, or a tendency towards a worsening effect"}, {"measurement": "duration of improved cognitive performance after the treatment", "setting": "5XFAD AD-Tg mice; weekly-GA, 5XFAD AD-Tg mice", "value": "up to 2 months"}, {"measurement": "cognitive performance by the RAWM task", "setting": "5XFAD AD-Tg mice; weekly-GA, 7-month old 5XFAD AD-Tg mice", "value": "beneficial effect"}]}
